# From US20100022559A1, “BISOXIMES AS FUNGICIDES” (BAYER CROPSCIENCE AG, priority 2006, published 2010)
# Test: logP determination by HPLC on a reversed-phase column (C 18), EEC Directive 79/831 Annex V.A8
# Assay type: physicochemical
# Description: The stated logP values were determined in accordance with EEC Directive 79/831 Annex V.A8 by HPLC (high performance liquid chromatography) on a reversed-phase column (C 18). Temperature: 43° C.
SMILES,logP (method marked [b] in Table 1),logP (method marked [a] in Table 1),other results
CC(=NOCCCON=C(C)c1cccc(C(F)F)n1)c1cccc(C(F)F)n1 [compound 521],,,logP (value marked [a]): 5.21^[a]
C=C(CON=C(C)c1csc(C)n1)CON=C(C)c1csc(C)n1 [compound 522],,,logP (value marked [a]): 3.22^[a]; logP (value marked [b]): 3.22^[b]
CC(=NOCCCCON=C(Cc1ccccc1)c1ncccc1C)c1cccc(C)n1 [compound 528],,,logP (value marked [b]): 3.24^[b]
CC(=NOCC(C)CON=C(C)c1cccc(-c2cccc(C)n2)n1)c1cccc(-c2cccc(C)n2)n1 (stereo not shown) [compound 551],6.24^[b],,logP (method marked [c] in Table 1): 3.26^[c]
CC(=NOCC(O)CON=C(C)c1cc(C)cc(C)n1)c1cc(C)cc(C)n1 (stereo not shown) [compound 560],1.22[b],,logP (method marked [c] in Table 1): 3.68^[c]
CC(=NOCC(C)CON=C(C)c1cccc(-c2ccccc2)n1)c1cccc(-c2ccccc2)n1 (stereo not shown) [compound 563],7.36^[b],,logP (method marked [c] in Table 1): 7.36^[c]
C=C(CON=C(C)c1ccc[nH]1)CON=C(C)c1ccc[nH]1 [compound 564],3.23^[b],,logP (method marked [c] in Table 1): 3.20^[c]
C=C(CON=C(C)c1nc(OC)cc(OC)n1)CON=C(C)c1nc(OC)cc(OC)n1 [compound 565],4.10^[b],,logP (method marked [c] in Table 1): 4.10^[c]
C=C(CON=C(C)c1cccc(-c2ccccc2)n1)CON=C(C)c1cccc(-c2ccccc2)n1 [compound 567],7.26,,logP (method marked [c] in Table 1): 7.27
CCc1cc(CC)nc(C(C)=NOCC(C)CON=C(C)c2cc(CC)cc(CC)n2)c1 (stereo not shown) [compound 574],,5.95^[a],
CC(=NOCC(C)(C)CON=C(C)c1nccn1C)c1nccn1C [compound 576],,1.07^[a],
CC(=NOCC(C)(C)CON=C(C)c1cccc(-c2ccc(Cl)c(C(F)(F)F)c2)n1)c1cccc(-c2ccc(Cl)c(C(F)(F)F)c2)n1 [compound 577],,7.36^[a],
CC(=NOCC(C)(C)CON=C(C)c1cccc(-c2cc(Cl)cc(Cl)c2)n1)c1cccc(-c2cc(Cl)cc(Cl)c2)n1 [compound 578],,7.36^a],
COc1ccc(-c2cccc(C(C)=NOCC(C)(C)CON=C(C)c3cccc(-c4ccc(OC)cc4)n3)n2)cc1 [compound 579],,7.36^[a],
CC(=NOCC(CON=C(C)c1nc(C)ccc1C)Cc1ccccc1)c1nc(C)ccc1C (stereo not shown) [compound 590],4.15^[b],,logP (method marked [c] in Table 1): 6.01^[c]
CCC1=NOC(CON=C(C)c2cccc(C)n2)(CON=C(C)c2cccc(C)n2)C1 (stereo not shown) [compound 594],,2.68^[a],
CC(=NOCC1(CON=C(C)c2cccc(C)n2)CC(C(C)C)=NO1)c1cccc(C)n1 (stereo not shown) [compound 597],3.28^[b],,
CC(=NOCC1(CON=C(C)c2cccc(C)n2)CC(c2ccc(Cl)cc2)=NO1)c1cccc(C)n1 (stereo not shown) [compound 601],4.67^[b],,

# The next lines start with results.
logP (method marked [b] in Table 1),logP (method marked [a] in Table 1),SMILES,other results
4.37^[b],,CC(=NOCC(C)(C)CON=C(C)c1sc(C)nc1C)c1cccc(C)n1 [compound 546],
4.57^[b],,CC(=NOCC(C)(C)CON=C(c1cccc(C)n1)C(C)C)c1cccc(C)n1 [compound 547],
,6.08^[a],CC(=NOCC(C)CON=C(C)c1cccc(Cl)n1)c1cccc(Cl)n1 (stereo not shown) [compound 568],
,6.50^[a],CC(=NOCC(C)(C)CON=C(C)c1cccc(Cl)n1)c1cccc(Cl)n1 [compound 569],
,7.36^[a],CC(=NOCC(C)(C)CON=C(C)c1cccc(-c2ccc(C(C)(C)C)cc2)n1)c1cccc(-c2ccc(C(C)(C)C)cc2)n1 [compound 580],
3.40^[b],,CC(=NOCC(CON=C(C)c1nc(C)ccc1C)Cc1ccccc1)c1cccc(C)n1 (stereo not shown) [compound 591],logP (method marked [c] in Table 1): 5.07^[c]
,4.79^[a],CCC1=NOC(CON=C(c2cccc(C)n2)C(C)C)(CON=C(c2cccc(C)n2)C(C)C)C1 (stereo not shown) [compound 595],
2.20^[b],,CC1=NOC(CON=C(C)c2cccc(C)n2)(CON=C(C)c2cccc(C)n2)C1 (stereo not shown) [compound 596],
3.33^[b],,CCCC1=NOC(CON=C(C)c2cccc(C)n2)(CON=C(C)c2cccc(C)n2)C1 (stereo not shown) [compound 598],
3.89^[b],,CC(=NOCC1(CON=C(C)c2cccc(C)n2)CC(CC(C)C)=NO1)c1cccc(C)n1 (stereo not shown) [compound 599],
